# Assay results as given in patent US5500424A, “Pyrimidine and pyridine derivatives, their production and use” (Nihon Nohyaku Co., Ltd., priority 1993, dated 1996).
# Tests used:
# [1] = target: T1, acyl-CoA:cholesterol acyltransferase (ACAT) (Oryctolagus cuniculus, UniProt G1SFD9); assay: Inhibitory activity on acyl-CoA:cholesterol acyltransferase (ACAT); assay type: biochemical, white rabbit; settings: rabbit intestinal mucosa microsomes, read-out: Inhibition rate
# T1 construct: The intestinal mucosa of a white rabbit was homogenized and microsomal fraction was obtained; from tissue; host or cells: white rabbit intestinal mucosa, microsomal fraction
# T1 sequence (G1SFD9 1-524): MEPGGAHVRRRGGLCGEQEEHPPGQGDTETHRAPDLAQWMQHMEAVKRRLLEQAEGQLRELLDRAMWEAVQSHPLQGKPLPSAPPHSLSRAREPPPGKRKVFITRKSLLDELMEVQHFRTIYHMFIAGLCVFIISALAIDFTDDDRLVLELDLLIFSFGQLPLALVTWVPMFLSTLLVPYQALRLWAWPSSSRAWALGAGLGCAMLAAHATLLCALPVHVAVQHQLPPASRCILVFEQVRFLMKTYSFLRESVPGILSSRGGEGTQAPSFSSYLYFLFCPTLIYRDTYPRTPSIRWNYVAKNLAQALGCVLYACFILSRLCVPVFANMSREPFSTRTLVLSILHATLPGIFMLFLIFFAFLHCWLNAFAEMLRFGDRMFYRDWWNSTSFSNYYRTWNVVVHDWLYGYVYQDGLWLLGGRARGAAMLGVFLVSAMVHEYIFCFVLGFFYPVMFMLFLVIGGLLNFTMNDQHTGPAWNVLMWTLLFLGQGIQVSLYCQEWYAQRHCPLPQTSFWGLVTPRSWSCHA
# Method: Inhibitory activity on acyl-CoA:cholesterol acyltransferase (ACAT)
# The enzyme used in the test was prepared according to the method of Heider et al. [J. Lipid, Res. 24, 1127 (1983)]. The intestinal mucosa of a white rabbit was homogenized and microsomal fraction was obtained by stepwise centrifugation. The microsomal fraction was suspended in 0.154M phosphate buffer (pH 7.4) and stored at -80° C. until use.
# ACAT activity was determined by a modification of the method of Helgerud et al. [J. Lipid Res. 22, 271 (1981)] by measuring radioactivity incorporated into cholesterol esters from [1-^14 C]oleyl-CoA, as an indication. As to the ACAT-inhibitory activity of each compound to be tested, the inhibition rate was calculated by the following equation. [formula]
# [2] = test system: hamsters fed on a high-cholesterol diet; assay: Serum cholesterol lowering activity in hamsters fed on a high-cholesterol diet; assay type: in vivo, Male Syrian hamsters; settings: Mesocricetus auratus, 30 mg/kg per day for 4 days, 24 hours after last administration, read-out: Reduction rate of total serum cholesterol concentration
# Method: Serum cholesterol lowering activity in hamsters fed on a high-cholesterol diet
# Male Syrian hamsters of 10-week-old were divided into three groups. The first group (normal group) was fed an ordinary diet for 4 days. The second group (control group) was fed a high cholesterol diet (containing 0.5% cholesterol and 8.0% coconut oil) for 4 days. The third group (treated group) was fed a high cholesterol diet and was treated with a compound for 4 days. Simultaneously with the beginning of the above feeding, the compound was suspended in a 0.5% carboxymethyl cellulose solution and administered to the treated group, in a dose of 30 mg (in terms of the compound) per kg of body weight per day for 4 days. A 0.5% carboxymethyl cellulose solution was also administered to the normal group and the control group in the same manner as above.
# After 24 hours of the last administration, blood was collected and the cholesterol concentration in serum was measured by an enzymatic method. The reduction rate of the total serum cholesterol concentration was calculated from values obtained for the three groups by the following equation. [formula] wherein A: the serum cholesterol concentration of the control group.
# B: the serum cholesterol concentration of the treated group.
# C: the serum cholesterol concentration of the normal group.
SMILES,inhibition at 0.01 µM [1] [%],inhibition at 1 µM [1] [%],inhibition in vivo at 30 mg/kg [2] [%]
"Cc1nc(-c2ccccc2)nc(-c2ccccc2Cl)c1NC(=O)Nc1ccc(N(C)C)cc1 [Compound 6, N-[4-(2-Chlorophenyl)-6-methyl-2-phenylpyrimidin-5-yl]-N'-(4-dimethylaminophenyl)urea]",,23,
"CC(C)c1cccc(C(C)C)c1NC(=O)Nc1cnc(N2CCCCC2)nc1-c1ccccc1Cl [Compound 56, N-[4-(2-Chlorophenyl)-2-(N-piperidino)pyrimidin-5-yl]-N'-(2,6-diisopropylphenyl)urea]",69.5,,
"O=C(Nc1cnc(-c2ccccc2)nc1-c1ccccc1Cl)Nc1c(F)cc(F)cc1F [Compound 23, N-[4-(2-Chlorophenyl)-2-phenylpyrimidin-5-yl]-N'-(2,4,6-trifluorophenyl)urea]",,87,
"CCc1cccc(CC)c1NC(=O)Nc1cnc(N2CCCC2)nc1-c1ccccc1Cl [Compound 53, N-[4-(2-Chlorophenyl)-2-(N-pyrrolidino)pyrimidin-5-yl]-N'-(2,6-diethylphenyl)urea]",70,,
"CCc1cccc(CC)c1NC(=O)Nc1cnc(N2CCOCC2)nc1-c1ccccc1Cl [Compound 57, N-[4-(2-Chlorophenyl)-2-(N-morpholino)pyrimidin-5-yl]-N'-(2,6-diethylphenyl)urea]",63.2,,59.5
"CC(C)c1cccc(C(C)C)c1NC(=O)Nc1ccc(C2CCCCC2)nc1-c1ccccc1Cl [Compound 67, N-[2-(2-Chlorophenyl)-6-cyclohexylpyridin-3-yl]-N'-(2,6-diisopropylphenyl)urea]",58,,
"CC(C)c1cccc(C(C)C)c1NC(=O)Nc1cnc(C(C)(C)C)nc1-c1ccccc1Cl [Compound 50, N-[2-t-Butyl-4-(2-chlorophenyl)pyrimidin-5-yl]-N'-(2,6-diisopropylphenyl)urea]",48.4,,
"CCCCCCCc1ccc(NC(=O)Nc2c(C(C)C)cccc2C(C)C)c(-c2ccccc2Cl)n1 [Compound 65, N-[2-(2-Chlorophenyl)-6-(n-heptyl)pyridin-3-yl]-N'-(2,6-diisopropylphenyl)urea]",29.8,,
"Cc1ccc(NC(=O)Nc2c(C(C)C)cccc2C(C)C)c(-c2ccccc2Cl)n1 [Compound 64, N-[2-(2-Chlorophenyl)-6-methylpyridin-3-yl]-N'-(2,6-diisopropylphenyl)urea]",43.6,,
"CCOc1ncc(NC(=O)Nc2c(C(C)C)cccc2C(C)C)c(-c2ccccc2Cl)n1 [Compound 52, N-[4-(2-Chlorophenyl)-2-ethoxypyrimidin-5-yl]-N'-(2,6-diisopropylphenyl)urea]",64.7,,
"Cc1cc(C)c(NC(=O)Nc2c(C)nc(-c3ccccc3)nc2-c2ccccc2Cl)c(C)c1 [Compound 3, N-[4-(2-Chlorophenyl)-6-methyl-2-phenylpyrimidin-5-yl]-N'-(2,4,6-trimethylphenyl)urea]",,88.3,
"CC(C)c1cccc(C(C)C)c1NC(=O)Nc1cnc(N2CCN(C)CC2)nc1-c1ccccc1Cl [Compound 60, N-[4-(2-Chlorophenyl)-2-(4-methyl-1-piperazino)pyrimidin-5-yl]-N'-(2,6-diisopropylphenyl)urea]",40.1,,
"Cc1cc(C)c(NC(=O)Nc2cnc(-c3ccccc3)nc2-c2ccccc2Cl)c(C)c1 [Compound 18, N-[4-(2-Chlorophenyl)-2-phenylpyrimidin-5-yl]N'-(2,4,6-trimethylphenyl) urea]",,79.7,

# More lines, main results first:
inhibition at 0.01 µM [1] [%],inhibition at 1 µM [1] [%],SMILES,inhibition in vivo at 30 mg/kg [2] [%]
37.1,,"CC(C)c1cccc(C(C)C)c1NC(=O)Nc1cnc(-c2ccccc2)nc1-c1ccc(Cl)cc1Cl [Compound 30, N-[4-(2,4-Dichlorophenyl)-2-phenylpyrimidin-5-yl]-N'-[2,6-diisopropylphenyl)urea]",
58.8,99,"CCc1cccc(CC)c1NC(=O)Nc1cnc(-c2ccccc2)nc1-c1ccccc1Cl [Compound 14, N-[4-(2-Chlorophenyl)-2-phenylpyrimidin-5-yl]-N'-(2,6-diethylphenyl)urea]",59.4
40.2,97.5,"Cc1cccc(C)c1NC(=O)Nc1cnc(-c2ccccc2)nc1-c1ccccc1Cl [Compound 13, N-[4-(2-Chlorophenyl)-2-phenylpyrimidin-5-yl]-N'-(2,6-dimethylphenyl)urea]",
47.5,,"COc1ccccc1-c1nc(-c2ccccc2)ncc1NC(=O)Nc1c(C(C)C)cccc1C(C)C [Compound 40, N-(2,6-Diisopropylphenyl)-N'-[4-(2-methoxyphenyl)-2-phenylpyrimidin-5-yl]urea]",
35.9,,"Cc1cccc(N(C)C)c1NC(=O)Nc1cnc(-c2ccccc2)nc1-c1ccccc1Cl [Compound 19, N-[4-(2-Chlorophenyl)-2-phenylpyrimidin-5-yl]-N'-(2-dimethylamino-6-methylphenyl)urea]",
32,,"Cc1ncc(NC(=O)Nc2c(C(C)C)cccc2C(C)C)c(-c2ccccc2Cl)n1 [Compound 46, N-[4-(2-Chlorophenyl)-2-methylpyrimidin-5-yl]-N'-(2,6-diisopropylphenyl)urea]",
58.5,99.2,"Cc1nc(-c2ccccc2)nc(-c2ccccc2Cl)c1NC(=O)Nc1c(C(C)C)cccc1C(C)C [Compound 2, N-[4-(2-Chlorophenyl)-6-methyl-2-phenylpyrimidin-5-yl]-N'-(2,6-diisopropylphenyl)urea]",42.7
58.9,,"CC(C)c1cccc(C(C)C)c1NC(=O)Nc1cnc(-c2ccccc2)nc1-c1cccc(Cl)c1 [Compound 26, N-[4-(3-Chlorophenyl)-2-phenylpyrimidin-5-yl]-N'-(2,6-diisopropylphenyl)urea]",
16.7,98,"Cc1cccc(C(C)C)c1NC(=O)Nc1c(C)nc(-c2ccccc2)nc1-c1ccccc1Cl [Compound 1, N-[4-(2-Chlorophenyl)-6-methyl-2-phenylpyrimidin-5-yl]-N'-(2-isopropyl-6-methylphenyl)urea]",
65.8,,"CC(C)c1cccc(C(C)C)c1NC(=O)Nc1cnc(-c2ccccc2)nc1-c1ccccc1F [Compound 34, N-(2,6-Diisopropylphenyl)-N'-[4-(2-fluorophenyl)-2-phenylpyrimidin-5-yl]urea]",74
53.1,,"CC(C)c1cccc(C(C)C)c1NC(=O)Nc1ccc(-c2ccccc2)nc1-c1ccccc1Cl [Compound 63, N-[2-(2-Chlorophenyl)-6-phenylpyridin-3-yl]-N'-(2,6-diisopropylphenyl)urea]",
46.8,,"CC(C)c1cccc(C(C)C)c1NC(=O)Nc1cnc(-c2cc(Cl)cc(Cl)c2)nc1-c1ccccc1Cl [Compound 44, N-[4-(2-Chlorophenyl)-2-(3,5-dichlorophenyl)pyrimidin-5-yl]-N'-(2,6-diisopropylphenyl)urea]",
56.3,,"CCc1cccc(CC)c1NC(=O)Nc1cnc(-c2ccccc2)nc1-c1ccccc1SC [Compound 41, N-(2,6-Diethylphenyl)-N'-[4-(2-methylthiophenyl)-2-phenylpyrimidin-5-yl]urea]",
40.7,,"CC(C)c1cccc(C(C)C)c1NC(=O)Nc1cnc(-c2ccccc2)nc1-c1ccc(Cl)cc1 [Compound 28, N-[4-(4-Chlorophenyl)-2-phenylpyrimidin-5-yl]-N'-(2,6-diisopropylphenyl)urea]",
